Experimental data from US20220033435A1, “Cyclic Di-Nucleotide Compounds as STING Agonists” (Merck Sharp & Dohme Corp., priority 2018, published 2022).

What was measured:
THP1 cells = assay: IFN-β secretion in THP1 cell culture (5 h); type: cell-based, human; conditions: cGAMP at 30 uM set at 100%
Method: IFN-β secretion in THP1 cell culture (5 h)
The ability of compounds to stimulate the secretion of interferon-beta from THP1 cells was measured using a human IFN-0 AlphaLISA kit (Perkin Elmer, Cat. No. AL265F). The basic protocol is as follows:
A Labcyte Echo 550 acoustic dispenser was used to transfer 120 nL of compound dissolved in DMSO into the wells of an empty, sterile 384-well microplate, (Corning, Cat. No. 3712). THP1 cells (American Type Culture Collection, Cat. No. TIB202) previously frozen in Recovery Medium (Life Technologies, Cat. No. 12648-010) were thawed and immediately diluted 10-fold into 37° C. assay medium (RPMI 1640+L-Glutamine & phenol red, Life Technologies, Cat. No. 11875-085; 0.5% heat inactivated fetal bovine serum, Sigma Aldrich, Cat. No. F4135; 1 mM Sodium Pyruvate, Life Technologies, Cat. No. 11360-070; 1× non-essential amino acids; Life Technologies, Cat. No. 11140-050). The cell viability and count was ascertained using a Beckman Coulter V-Cell XR cell counter. The cell suspension was centrifuged at 200×g for 5 min at RT. Cells were resuspended to a density of 0.8×10^6/mL in 37° C. assay medium. Subsequent liquid transfers were performed using either a Matrix electronic multichannel pipette or an Agilent Bravo Automated Liquid Handling Platform. The assay was started by dispensing 40 μL of the previously prepared cell suspension into the wells of the plate containing compounds. After 5 h incubation at 37° C., 5% CO2 in a humidified atmosphere, the plate of cells and compounds was centrifuged at 200×g for 5 min at RT. From each well, 5 μL of supernatant was transferred into corresponding wells of a white 384-well plate (Perkin Elmer, Cat. No. 6005620). To these supernatant-containing wells was added 10 μL of 5× Anti-Analyte Acceptor beads (50 μg/mL of AlphaLISA HiBlock Buffer) and incubated for 30 min at RT while shaking on an orbital plate shaker. To each well was added 10 μL of 5× Biotinylated Antibody Anti-analyte (5 nM in AlphaLISA HiBlock Buffer) and incubated on an orbital plate shaker for 60 min at RT or overnight at 4° C. To each well was added 25 μL of 2×SA-Donor beads (80 μg/mL in AlphaLISA HiBlock Buffer) and incubated for 30-45 min at RT in the dark while shaking on an orbital plate shaker. The plate was then read on a Perkin Elmer Envision (λex=680 nm, […]). The percent effect of the AlphaLISA signal at each compound concentration was calculated based on 30 uM cGAMP positive controls and 0.3% DMSO negative controls. The plot of percent effect versus the log of compound concentration was fit with a 4-parameter concentration response equation to calculate EC50 values. The test compounds were tested at concentrations 30000, 10000, 3333, 1111, 370.4, 123.4, 41.2, 13.7, 4.6, and 1.5 nM with 0.3% residual DMSO. The control compound, cGAMP was tested at concentrations 100000, 33333, 11111, 3704, 1235, 412, 137, 46, and 15 nM with 0.3% residual DMSO.
Compounds of the disclosure were evaluated for IFN-β secretion in THP1 cell culture as described above. The following table tabulates the biological data for these compounds as percent activation relative to 2′3′-cGAMP at the 30 μM concentration.

full-length HAQ STING = target: T1, full-length HAQ STING (Homo sapiens, UniProt Q86WV6, G230A/H232R/R293Q/R71H); assay: 3H-cGAMP filtration binding assay (HAQ STING); conditions: competition with tritiated cGAMP ligand, HAQ STING membrane
T1 construct: Full-Length HAQ STING [STING(1-379)R71H, G230A, H232R,; made in house; host or cells: Trichoplusia ni (Hi-Five) insect cells infected with baculovirus; washed membranes were used
T1 sequence (Q86WV6 with tags, fused parts or gaps R71H/G230A/H232R/R293Q): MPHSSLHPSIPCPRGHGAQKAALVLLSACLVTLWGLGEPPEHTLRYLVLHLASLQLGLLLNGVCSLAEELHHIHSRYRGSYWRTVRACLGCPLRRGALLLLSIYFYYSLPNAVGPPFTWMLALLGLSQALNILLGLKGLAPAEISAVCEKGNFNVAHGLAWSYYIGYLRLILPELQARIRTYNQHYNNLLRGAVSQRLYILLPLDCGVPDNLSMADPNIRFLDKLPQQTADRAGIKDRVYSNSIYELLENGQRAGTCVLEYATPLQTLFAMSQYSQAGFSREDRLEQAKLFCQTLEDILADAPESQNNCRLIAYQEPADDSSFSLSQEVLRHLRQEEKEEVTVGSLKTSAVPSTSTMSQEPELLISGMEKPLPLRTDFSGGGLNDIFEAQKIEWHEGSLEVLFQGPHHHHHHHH
Description: The ability of compounds to bind STING is quantified by the ability to compete with tritiated cGAMP ligand for human STING receptor membrane using a radioactive filter-binding assay. The binding assay employs STING receptor obtained from Hi-Five cell membranes overexpressing full-length HAQ STING prepared in-house and tritiated cGAMP ligand also purified in-house.
The ability of compounds to bind STING is quantified by their ability to compete with tritiated cGAMP ligand for human STING receptor membrane using a radioactive filter-binding assay. The binding assay employs STING receptor obtained from Trichoplusia ni cell membranes (T.ni; Expression Systems, cat #94-002F, www.expressionsystems.com) overexpressing full-length HAQ STING and tritiated cGAMP ligand.
The basic HAQ STING filtration assay protocol is as follows:
Compound and membrane then preincubated for 60 min at RT to allow compound binding to equilibrate. Following equilibration, 8 nM of [^3H]c-GAMP ligand was prepared by diluting into assay buffer, and 50 uL of this working stock was then manually added to each well of the assay plate. […] The filter plates were then dried at 55° C. for 30 min using a pressurized oven before 30 uL of ULTIMA GOLD F scintillate was added to each well. Tritium levels for each reaction well were then measured using a PerkinElmer TopCount plate reader.
After normalization to controls, the percent activity for each compound concentration was calculated by measuring the amount of remaining radioactivity. The plot of percent activity versus the log of compound concentration was fit with a 4-parameter dose response equation to calculate EC50 values.

SMILES	% Effect at 30 μM relative to 2′3′-cGAMP (THP1 cells) [%]	EC50 (full-length HAQ STING) [nM]
Nc1nc2c(ncn2[C@@H]2O[C@@H]3COP(=O)(S)O[C@@H]4C[C@H](n5cnc6c(N)ncnc65)O[C@@H]4COP(=O)(S)O[C@@H]2[C@@H]3F)c(=O)[nH]1 (single isomer, unassigned) [Example 1]	112	
Nc1nc2c(ncn2[C@@H]2O[C@@H]3COP(=O)(S)O[C@@H]4C[C@H](n5cnc6c(N)ncnc65)O[C@@H]4COP(=O)(S)O[C@@H]2[C@@H]3F)c(=O)[nH]1 (single isomer, unassigned) [Example 2]	114	
Nc1ncnc2c1ncn2[C@@H]1O[C@@H]2COP(=O)(S)O[C@@H]3[C@H](O)[C@@H](COP(=O)(S)O[C@@H]2[C@H]1O)O[C@H]3n1ccc(=O)n2ccnc12 (single isomer, unassigned) [Example 4]	30	3690
Nc1ncnc2c1ncn2[C@@H]1O[C@@H]2COP(=O)(S)O[C@@H]3[C@H](O)[C@@H](COP(=O)(S)O[C@@H]2[C@H]1O)O[C@H]3n1ccc(=O)n2ccnc12 (single isomer, unassigned) [Example 5]	62	4410
Nc1nc2c(ncn2[C@@H]2O[C@@H]3COP(=O)(S)O[C@@H]4[C@H](F)[C@H](n5cnc6c(N)ncnc65)O[C@@H]4COP(=O)(S)O[C@@H]2C3)c(=O)[nH]1 (single isomer, unassigned) [Example 6]	61	48.6
Nc1nc2c(ncn2[C@@H]2O[C@@H]3COP(=O)(S)O[C@@H]4[C@H](F)[C@H](n5cnc6c(N)ncnc65)O[C@@H]4COP(=O)(S)O[C@@H]2C3)c(=O)[nH]1 (single isomer, unassigned) [Example 7]	118	2.35
Nc1nc2c(ncn2[C@@H]2O[C@@H]3COP(=O)(S)O[C@@H]4[C@@H](O)[C@H](n5cnc6c(N)ncnc65)O[C@@H]4COP(=O)(S)O[C@@H]2C3)c(=O)[nH]1 (stereo partly drawn) [Example 3, 2-amino-9-[(5S,7R,8R,12aR,14R,15R,15aR)-14-(6-amino-9H-purin-9-yl)-15-hydroxy-2,10-dioxido-2,10-disulfanyloctahydro-12H-5,8-methanofuro[3,2-l][1,3,6,9,11,2,10]penta-oxadiphosphacyclotetradecin-7-yl]-1,9-dihydro-6H-purin-6-one]	63	
